Here are results for 35 molecules from patent US10123993B2, “Cyclic ureas as inhibitors of rock” (BRISTOL-MYERS SQUIBB COMPANY, priority 2015, dated 2018).

Bounds are passed on as bounds.

ROCK2, sequence (O75116 whole entry, species assumed): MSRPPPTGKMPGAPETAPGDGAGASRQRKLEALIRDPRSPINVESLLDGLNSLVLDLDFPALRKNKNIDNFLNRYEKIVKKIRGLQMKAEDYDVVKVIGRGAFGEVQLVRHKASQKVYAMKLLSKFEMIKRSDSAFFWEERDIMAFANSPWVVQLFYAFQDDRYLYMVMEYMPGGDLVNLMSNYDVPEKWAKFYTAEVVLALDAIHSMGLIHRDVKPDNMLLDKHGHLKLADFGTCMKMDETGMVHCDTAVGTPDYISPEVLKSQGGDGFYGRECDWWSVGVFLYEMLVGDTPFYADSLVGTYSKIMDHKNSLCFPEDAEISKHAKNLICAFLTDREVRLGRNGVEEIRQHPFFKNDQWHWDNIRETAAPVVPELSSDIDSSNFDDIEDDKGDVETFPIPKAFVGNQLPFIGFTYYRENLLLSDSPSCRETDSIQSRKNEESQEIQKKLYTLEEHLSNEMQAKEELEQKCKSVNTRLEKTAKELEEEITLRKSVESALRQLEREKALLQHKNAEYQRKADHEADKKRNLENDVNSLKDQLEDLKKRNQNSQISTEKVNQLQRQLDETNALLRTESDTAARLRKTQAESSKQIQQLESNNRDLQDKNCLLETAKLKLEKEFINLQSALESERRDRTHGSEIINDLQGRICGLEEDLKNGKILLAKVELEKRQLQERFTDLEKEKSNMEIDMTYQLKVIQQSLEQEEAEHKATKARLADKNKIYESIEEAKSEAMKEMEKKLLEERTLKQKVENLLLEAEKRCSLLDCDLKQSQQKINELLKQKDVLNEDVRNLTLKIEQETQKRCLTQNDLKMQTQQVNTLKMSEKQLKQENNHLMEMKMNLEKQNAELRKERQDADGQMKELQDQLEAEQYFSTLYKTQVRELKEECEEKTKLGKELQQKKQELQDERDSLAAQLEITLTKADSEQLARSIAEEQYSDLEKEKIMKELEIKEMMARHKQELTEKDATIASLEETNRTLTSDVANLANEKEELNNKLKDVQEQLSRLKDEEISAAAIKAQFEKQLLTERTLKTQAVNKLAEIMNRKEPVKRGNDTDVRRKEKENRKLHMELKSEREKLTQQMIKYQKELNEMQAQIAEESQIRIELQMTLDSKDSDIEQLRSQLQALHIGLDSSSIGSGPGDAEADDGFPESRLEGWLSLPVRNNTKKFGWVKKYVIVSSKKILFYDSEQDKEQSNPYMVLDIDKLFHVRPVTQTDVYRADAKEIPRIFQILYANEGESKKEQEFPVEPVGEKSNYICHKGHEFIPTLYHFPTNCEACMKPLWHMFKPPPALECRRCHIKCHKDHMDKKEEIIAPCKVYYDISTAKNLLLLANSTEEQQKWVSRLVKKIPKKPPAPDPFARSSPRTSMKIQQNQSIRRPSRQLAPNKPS

The test has as its target ROCK2 (Homo sapiens, UniProt O75116). Put plainly: ROCK2 kinase inhibition assay (Caliper LABCHIP, FITC peptide substrate). It counts as biochemical. The note with it: 5 μM ATP, 1.5 μM peptide substrate; value ranges. Put shortly: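 Dose-response curves gave IC50 from inhibition of peptide phosphorylation, measured by LabChip separation after EDTA stop. Reactions used 1.5 μM FITC-labelled peptide, 5 μM ATP, 20 mM HEPES pH 7.5 with MgCl2, Brij-35, DTT, and under 2% DMSO.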
For orientation: IC50 means the concentration needed to halve the response being measured. Lower therefore signals greater potency in that assay. Molecule `COc1nc(-n2ccn(Cc3ccc(F)cc3C)c2=O)ccc1-c1cn[nH]c1` [Example 381, 1-(4-fluoro-2-methylbenzyl)-3-(6-methoxy-5-(1H-pyrazol-4-yl)pyridin-2-yl)-1H-imidazol-2(3H)-one] yielded an IC50 of 2.1 to 20 nM.

The molecule `COc1cccc(CN2CC(CO)N(c3ccc(-c4cn[nH]c4)cc3)C2=O)c1` (single isomer, unassigned) [Example 126, 3-(4-(1H-Pyrazol-4-yl)phenyl)-4-(hydroxymethyl)-1-(3-methoxybenzyl)imidazolidin-2-one] yielded an IC50 of 20.1 to 200 nM.

In the case of `COc1cc(CN2CCN(c3ccc(-c4cn[nH]c4)nc3)C2=O)ccc1F` [Example 440, 1-(6-(1H-pyrazol-4-yl)pyridin-3-yl)-3-(4-fluoro-3-methoxybenzyl)imidazolidin-2-one], the IC50 lay in the range of 20.1 to 200 nM.

In turn, `COc1cccc(CN2C(=O)N(c3ccc(-c4cn[nH]c4)cc3)CC2CO)c1` (single isomer, unassigned; (+)) [Example 42, (+)-1-(4-(1H-Pyrazol-4-yl)phenyl)-4-(hydroxymethyl)-3-(3-methoxybenzyl)imidazolidin-2-one] had a half-inhibitory concentration (IC50) below 2 nM.

Molecule `COc1cccc(CN2CCN(c3ccc(-c4cn[nH]c4)c(C)n3)C2=O)c1` [Example 179, 1-(3-methoxy-benzyl)-3-(6-methyl-5-(1H-pyrazol-4-yl)pyridin-2-yl)-imidazolidin-2-one] registered a half-maximal inhibitory concentration (IC50) of 2.1 to 20 nM.

Consider `O=C1N(Cc2ccc(F)cc2)CCN1c1ccc(-c2cn[nH]c2)cc1` [Example 5, 1-(4-(1H-pyrazol-4-yl)phenyl)-3-(4-fluorobenzyl)imidazolidin-2-one], for which the IC50 lay within 20.1 to 200 nM.

The molecule `O=C1CN(Cc2ccccc2Cl)C(=O)N1c1ccc(-c2cn[nH]c2)cc1` [Example 82, 3-(4-(1H-pyrazol-4-yl)phenyl)-1-(2-chlorobenzyl)imidazolidine-2,4-dione] came in with a concentration for half-maximal inhibition (IC50) of 20.1 to 200 nM.

`COc1cccc(C(CO)n2ccn(-c3ccc(-c4cn[nH]c4)c(OC)c3)c2=O)c1` (single isomer, unassigned) [Example 360, 1-(2-hydroxy-1-(3-methoxyphenyl)ethyl)-3-(3-methoxy-4-(1H-pyrazol-4-yl)phenyl)-1H-imidazol-2(3H)-one] displayed an IC50 of 200 to 2000 nM.

In the case of `COc1cccc(C(C(=O)NCC(C)C)N2CCN(c3ccc(-c4cn[nH]c4)cc3)C2=O)c1` (single isomer, unassigned) [Example 293, 2-(3-(4-(1H-pyrazol-4-yl)phenyl)-2-oxoimidazolidin-1-yl)-N-isobutyl-2-(3-methoxyphenyl)acetamide], the IC50 was in the range of 200 to 2000 nM.

As to `COc1cc(F)cc(Cn2ccn(-c3ccc(-c4cn[nH]c4)c(OC)c3)c2=O)c1` [Example 343, 1-(3-fluoro-5-methoxybenzyl)-3-(3-methoxy-4-(1H-pyrazol-4-yl)phenyl)-1H-imidazol-2(3H)-one], the 50% inhibitory concentration (IC50) lay within 2.1 to 20 nM.

In turn, `COc1cccc(C(CO)n2ccn(-c3ccc(-c4cn[nH]c4)c(OC)c3)c2=O)c1` (single isomer, unassigned) [Example 361, 1-(2-hydroxy-1-(3-methoxyphenyl)ethyl)-3-(3-methoxy-4-(1H-pyrazol-4-yl)phenyl)-1H-imidazol-2(3H)-one] displayed a half-maximal inhibitory concentration (IC50) of 2.1 to 20 nM.

In turn, `CCc1cc(N2CCN(C(CO)c3cccc(OC)c3)C2=O)ccc1-c1cn[nH]c1` (single isomer, unassigned) [Example 166, 1-(3-ethyl-4-(1H-pyrazol-4-yl)phenyl)-3-(2-hydroxy-1-(3-methoxy-phenyl)ethyl) imidazolidin-2-one] showed a half-maximal inhibitory concentration (IC50) of 2.1 to 20 nM.

As for `CNc1nc(N2CCN(Cc3cccc(OC)c3)C2=O)ccc1-c1cn[nH]c1` [Example 202, 1-(3-methoxy-benzyl)-3-(6-(methyl-amino)-5-(1H-pyrazol-4-yl)pyridin-2-yl)-imidazolidin-2-one], the IC50 was in the range of 2.1 to 20 nM.

Consider `COc1cc(F)cc(CN2C(=O)N(c3ccc(-c4cn[nH]c4)cc3)C[C@H]2CO)c1` [Example 129, (S)-1-(4-(1H-pyrazol-4-yl)phenyl)-3-(3-fluoro-5-methoxy-benzyl)-4-(hydroxy-methyl)-imidazolidin-2-one], for which the IC50 was below 2 nM.

In turn, `COc1cccc(CN2C(=O)N(c3ccc(-c4cn[nH]c4)cc3)CC2(C)C)c1F` [Example 143, 1-(4-(1H-pyrazol-4-yl)phenyl)-3-(2-fluoro-3-methoxy-benzyl)-4,4-dimethyl-imidazolidin-2-one] displayed a half-inhibitory concentration (IC50) of 20.1 to 200 nM.

The molecule `O=C1N(Cc2cccc(Cl)c2)CCN1c1ccc(-c2cn[nH]c2)cn1` [Example 237, 1-(5-(1H-pyrazol-4-yl)pyridin-2-yl)-3-(3-chlorobenzyl)imidazolidin-2-one] yielded an IC50 of 20.1 to 200 nM.

As to `COc1cc(CN2C(=O)N(c3ccc(-c4cn[nH]c4)c(C)n3)CC2(C)C)ccc1F` [Example 152, 3-(4-fluoro-3-methoxy-benzyl)-4,4-dimethyl-1-(6-methyl-5-(1H-pyrazol-4-yl)pyridin-2-yl)-imidazolidin-2-one], the 50% inhibitory concentration (IC50) is 2.1 to 20 nM.

On to `COc1cccc(CN2CCN(c3ccc(-c4cn[nH]c4)cc3OC)C2=O)c1` [Example 10, 1-(2-Methoxy-4-(1H-pyrazol-4-yl)phenyl)-3-(3-methoxybenzyl)imidazolidin-2-one], for which the half-inhibitory concentration (IC50) lay within 2.1 to 20 nM.

On to `COc1ccc(CN2CCN(c3ccc(-c4cn[nH]c4)cc3)C2=O)cc1F` [Example 117, 1-(4-(1H-pyrazol-4-yl)phenyl)-3-(3-fluoro-4-methoxybenzyl)imidazolidin-2-one], for which the IC50 was 200 to 2000 nM.

In turn, `COc1cc(F)cc(CN2CCN(c3ccc(-c4cn[nH]c4)c(C(F)(F)F)c3)C2=O)c1` [Example 276, 1-(4-(1H-pyrazol-4-yl)-3-(trifluoromethyl)phenyl)-3-(3-fluoro-5-methoxybenzyl)imidazolidin-2-one] showed an IC50 of 20.1 to 200 nM.

In turn, `COc1cccc(CN2C(=O)CN(c3ccc(-c4cn[nH]c4)c(OC)c3)C2=O)c1` [Example 105, 1-(3-methoxy-4-(1H-pyrazol-4-yl)phenyl)-3-(3-methoxy-benzyl)imidazolidine-2,4-dione] returned an IC50 of 2.1 to 20 nM.

As to `O=C1N(Cc2cccc(OCC3CC3)c2)CCN1c1ccc(-c2cn[nH]c2)cn1` [Example 438, 1-(5-(1H-pyrazol-4-yl)pyridin-2-yl)-3-(3-(cyclopropylmethoxy)benzyl)imidazolidin-2-one], the IC50 was 20.1 to 200 nM.

Regarding `O=C1CN(c2ccc(-c3cn[nH]c3)cc2)C(=O)N1Cc1c(F)cccc1F` [Example 108, 1-(4-(1H-pyrazol-4-yl)phenyl)-3-(2,6-difluorobenzyl) imidazolidine-2,4-dione], the 50% inhibitory concentration (IC50) was in the range of 200 to 2000 nM.

For `CNC(=O)C(C)(c1cccc(OC)c1)N1CCN(c2ccc(-c3cn[nH]c3)cc2)C1=O` (single isomer, unassigned) [Example 304, 2-(3-(4-(1H-Pyrazol-4-yl)phenyl)-2-oxoimidazolidin-1-yl)-2-(3-methoxyphenyl)-N-methylpropanamide], the half-maximal inhibitory concentration (IC50) was 200 to 2000 nM.

`COc1cc(CN2CCN(c3ccc(-c4cn[nH]c4)c(C)c3)C2=O)ccc1F` [Example 282, 1-(4-fluoro-3-methoxybenzyl)-3-(3-methyl-4-(1H-pyrazol-4-yl)-phenyl)imidazolidin-2-one] yielded an IC50 of 2.1 to 20 nM.

On to `COc1cccc(CN2CCN(c3cc(F)c(-c4cn[nH]c4)cc3F)C2=O)c1` [Example 447, 1-(2,5-difluoro-4-(1H-pyrazol-4-yl)phenyl)-3-(3-methoxybenzyl)imidazolidin-2-one], for which the IC50 lay within 20.1 to 200 nM.

As to `O=C1N(Cc2cccc(F)c2)CCN1c1ccc(-c2cn[nH]c2)cc1` [Example 4, 1-(4-(1H-pyrazol-4-yl)phenyl)-3-(3-fluorobenzyl)imidazolidin-2-one], the IC50 lay within 2.1 to 20 nM.

The molecule `COc1cccc(C(CO)n2ccn(-c3ccc(-c4cn[nH]c4)cc3)c2=O)c1` (single isomer, unassigned) [Example 323, 1-(4-(1H-Pyrazol-4-yl)phenyl)-3-(2-hydroxy-1-(3-methoxyphenyl)ethyl)-1H-imidazol-2(3H)-one] returned a half-inhibitory concentration (IC50) of 200 to 2000 nM.

The molecule `CCc1nc(N2CCN(Cc3cccc(OCC4CC4)c3)C2=O)ccc1-c1cn[nH]c1` [Example 169, 1-(3-(cyclo-propyl-methoxy)-benzyl)-3-(6-ethyl-5-(1H-pyrazol-4-yl)pyridin-2-yl)-imidazolidin-2-one] had an IC50 of 20.1 to 200 nM.

For `COc1cccc(C(C)N2CCN(c3ccc(-c4cn[nH]c4)cn3)C2=O)c1` (single isomer, unassigned) [Example 459, 1-(5-(1H-pyrazol-4-yl)pyridin-2-yl)-3-(1-(3-methoxyphenyl)ethyl)imidazolidin-2-one], the IC50 lay within 20.1 to 200 nM.

On to `COc1nc(-n2ccn(CC3CCCO3)c2=O)ccc1-c1cn[nH]c1` (centres unmarked) [Example 418, 1-(6-methoxy-5-(1H-pyrazol-4-yl)pyridin-2-yl)-3-((tetrahydrofuran-2-yl)methyl)-1H-imidazol-2(3H)-one], for which the IC50 is 20.1 to 200 nM.

As for `CC1(C)CN(c2ccc(-c3cn[nH]c3)cc2)C(=O)N1Cc1cccc(OCC2CC2)c1` [Example 144, 1-(4-(1H-pyrazol-4-yl)phenyl)-3-(3-(cyclo-propyl-methoxy)benzyl)-4,4-dimethyl-imidazolidin-2-one], the IC50 is 2.1 to 20 nM.

Take `COc1cccc(CN2CC(=O)N(c3ccc(-c4cn[nH]c4)cc3)C2=O)c1` [Example 80, 3-(4-(1H-Pyrazol-4-yl)phenyl)-1-(3-methoxybenzyl)imidazolidine-2,4-dione]: the IC50 lay in the range of 20.1 to 200 nM.

In turn, `COc1cccc(CN2C(=O)N(c3ccc(-c4cn[nH]c4)cc3)CC2CO)c1` (single isomer, unassigned; (-)) [Example 43, (−)-1-(4-(1H-Pyrazol-4-yl)phenyl)-4-(hydroxymethyl)-3-(3-methoxybenzyl)imidazolidin-2-one] registered an IC50 below 2 nM.

As to `CNC(=O)C(c1cccc(OC)c1)N1CCN(c2ccc(-c3cn[nH]c3)cc2)C1=O` (single isomer, unassigned) [Example 291, 2-(3-(4-(1H-pyrazol-4-yl)phenyl)-2-oxoimidazolidin-1-yl)-2-(3-methoxyphenyl)-N-methylacetamide], the IC50 was in the range of 20.1 to 200 nM.
